Laboratory results taken from patent US11384078B2, “5,6-fused-bicyclic compounds and compositions for the treatment of parasitic diseases” (NOVARTIS AG, priority 2017, dated 2022).
Read-outs that look alike come from different tables or passages of the source.

Key:
Assay type in all cases: cell-based
[1] = system: Trypanosoma cruzi amastigotes cultured in 3T3 fibroblast cells; experiment: Assay for growth inhibition of kinetoplastid parasite Trypanosoma cruzi (beta-galactosidase Tulahuen strain, CPRG readout); conditions: T. cruzi amastigotes in 3T3 fibroblast cells, read-out: Buckner infectious T. cruzi EC50
Summary of the method: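 3T3 fibroblasts (1,000 cells/well) plated overnight, treated with compound in DMSO, then infected with 10,000 Lac-Z-expressing Tulahuen trypomastigotes. After 6 days, 0.6 mM CPRG with 0.6% NP-40 added for 2 h at room temperature; absorbance gives relative intracellular amastigote numbers. Benznidazole and nifurtimox serve as positive controls.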

[2] = system: L. donovani HU3 strain in mouse peritoneal macrophages; experiment: Assay for inhibition of parasitemia of Leishmania donovani in mouse macrophages (SYBR Green nuclei count, high-content imaging); conditions: read-out: L. donovani in Mouse Macrophages EC50
Text: Assay for Inhibition of Parasitemia of Leishmania donovani in Mouse Macrophages
The assay measures the increase in the parasite number in the assayed plate well using a DNA intercalating dye, SYBR Green I® dye (INVITROGEN) to stain Leishmania cell nuclei. L. donovani HU3 strain is propagated by infecting BALB/c mice through tail vein injection with 10^7 Leishmania parasites. Infected mice are allowed to develop infection during 9-11 weeks post-infection. During this time, the parasites accumulate in the infected mouse spleens to large numbers, and the infected mice serve as the source of parasites for the in vitro measurement of compound efficacies. To assay a compound for anti-leishmanial activity, peritoneal macrophages isolated from non-infected BALB/c mice are seeded into 384-well plates at density 2×10^4 macrophages per well in […] of medium (RPM11640, 10% fetal serum albumin, 10 mM HEPES, 1 mM sodium pyruvate, 1% Pen/Strep). Subsequently, the seeded plates are placed into an incubator set to maintain 37° C. temperature and atmosphere with 5% CO2.
The next day, Leishmania parasites are isolated from the spleens of mice infected for 9-11 weeks and 4×10^5 isolated parasites in […] of the above media are added to each plate well. Plates are then returned into incubators and infection is allowed to proceed for 24 hours. After the infection of macrophages is completed, […] of compounds of the invention in the above medium, which also contains 5% DMSO, are added to plate wells containing infected macrophages. At the same time control compounds (miltefosine and amphotericin B) and DMSO are added to plates to serve as the positive and negative controls, respectively. After the compound addition, the plates are returned into incubator and cells infected with parasites are cultured for 5 days. At the end of cultivation, […] of 8% paraformaldehyde is added to plate wells and incubated for 15 min at room temperature. Following the incubation, the paraformaldehyde from plate wells is aspirated, and […] of PBS containing 0.2% Triton X-100 is added to wells. After 15 min incubation, the solution is aspirated from wells again, and replaced with Sybr® Green Dye solution in PBS (1:125,000 dilution). Infected cells are imaged with Evotec Opera high-content microscope, and the number of parasites in well is determined by counting parasite nuclei visualized by staining with Sybr® Green dye.

[3] = system: Trypanosoma brucei brucei (Lister 427) strain; experiment: Assay for growth inhibition against Trypanosoma brucei brucei (Cell TiterGlo ATP luminescence); conditions: T. brucei brucei (Lister 427), read-out: T. Brucei (HAT) EC50
Summary of the method: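 Growth read-out is cellular ATP by CellTiter-Glo luminescence, measured 30 min after reagent addition, following 2-day incubation at 37 °C in CO2. Parasites (10,000/mL, HMI-9 plus 10% FBS and 10% serum plus) faced 10 threefold dilutions in duplicate; IC50 taken as 50% growth inhibition versus untreated.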

[4] = system: Leishmania donovani axenic amastigote; experiment: In vitro assay for growth inhibition of Leishmania donovani axenic amastigote (Cell TiterGlo luminescence); conditions: L. donovani axenic amastigotes in vitro, read-out: L. donovani amastigotes EC50
Summary of the method: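 Compound-treated wells received 9600 axenic amastigotes in RPMI 1640-based medium at pH 5.5 (37 °C, 5% CO2). Growth measured as ATP luminescence (CellTiter-Glo) after 2-day incubation; DMSO and reference compounds served as controls.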

[5] = Leishmania donovani, Peritoneal macrophage, L. donovani in mouse peritoneal macrophages
[6] = L. donovani in mouse peritoneal macrophages

SMILES	EC50 ([1]; Trypanosoma cruzi, Fibroblast)	EC50 [2, 5]	EC50 ([3]; Trypanosoma brucei)	EC50 ([4]; Leishmania donovani)	EC50 [2, 6]	EC50 [3]	EC50 [1]	EC50 [4]	EC50 ([2]; Leishmania donovani, Peritoneal macrophage)
O=C(Nc1ccc(F)c(-n2cc3cc(N4CC5(CC5)C4)cnc3n2)c1)[C@H]1C[C@@H]1F (racemic) [Compound 272, (1R,2S)-N-[3-(5-{5-azaspiro[2.3]hexan-5-yl}-2H-pyrazolo[3,4-b]pyridin-2-yl]-4-fluorophenyl}-2-fluorocyclopropane-1-carboxamide]	0.114 µM	0.085 µM	0.351 µM	0.131 µM					
O=C(Nc1ccc(F)c(-n2cc3cc(-c4ccccn4)cnc3n2)c1)[C@@H]1C[C@@H]1F (racemic) [Compound 349, (1S,2S)-2-fluoro-N-{4-fluoro-3-[5-(pyridin-2-yl)-2H-pyrazolo[3,4-b]pyridin-2-yl]phenyl}cyclopropane-1-carboxamide]	0.085 µM	0.102 µM	0.043 µM	0.096 µM					
O=C(Nc1ccc(F)c(-n2cc3cc(-c4ccccn4)cnc3n2)c1)[C@@H]1C[C@H]1F (single isomer, unassigned) [Compound 256]	0.005 µM	0.038 µM	0.027 µM	0.011 µM					
O=C(Nc1ccc(F)c(-n2cc3cc(N4CC(F)(F)C4)cnc3n2)c1)[C@@H]1C[C@H]1F (single isomer, unassigned) [Compound 268, (1 S,2R)—N-(3-(5-(3,3-difluoroazetidin-1-yl)-2H-pyrazolo[3,4-b]pyridin-2-yl)-4-fluorophenyl)-2-fluorocyclopropane-1-carboxamide or (1R,2S)—N-(3-(5-(3,3-difluoroazetidin-1-yl)-2H-pyrazolo[3,4-b]pyridin-2-yl)-4-fluorophenyl)-2-fluorocyclopropane-1-carboxamide]	0.082 µM			0.084 µM	0.273 µM	0.116 µM			
O=C(Nc1ccc(F)c(-n2cc3cc(-c4ccccn4)cnc3n2)c1)[C@H]1C[C@@H]1F (single isomer, unassigned) [Compound 269, (1 S,2R)-2-fluoro-N-(4-fluoro-3-(5-(pyridin-2-yl)-2H-pyrazolo[3,4-b]pyridin-2-yl)phenyl)cyclopropane-1-carboxamide or (1R,2S)-2-fluoro-N-(4-fluoro-3-(5-(pyridin-2-yl)-2H-pyrazolo[3,4-b]pyridin-2-yl)phenyl)cyclopropane-1-carboxamide]	0.009 µM			0.019 µM	0.032 µM	0.02 µM			
O=C(Nc1ccc(F)c(-n2cc3cc(N4CC(F)(F)C4)cnc3n2)c1)[C@@H]1C[C@H]1F (single isomer, unassigned) [Compound 271, (1 S,2R)—N-(3-(5-(3,3-difluoroazetidin-1-yl)-2H-pyrazolo[3,4-b]pyridin-2-yl)-4-fluorophenyl)-2-fluorocyclopropane-1-carboxamide or (1R,2S)—N-(3-(5-(3,3-difluoroazetidin-1-yl)-2H-pyrazolo[3,4-b]pyridin-2-yl)-4-fluorophenyl)-2-fluorocyclopropane-1-carboxamide]					0.003 µM	0.388 µM	0.144 µM	0.12 µM	
O=C(Nc1ccc(F)c(-n2cc3cc(-c4ccccn4)cnc3n2)c1)[C@H]1C[C@@H]1F (single isomer, unassigned) [Compound 273, (1 S,2R)-2-fluoro-N-(4-fluoro-3-(5-(pyridin-2-yl)-2H-pyrazolo[3,4-b]pyridin-2-yl)phenyl)cyclopropane-1-carboxamide or (1R,2S)-2-fluoro-N-(4-fluoro-3-(5-(pyridin-2-yl)-2H-pyrazolo[3,4-b]pyridin-2-yl)phenyl)cyclopropane-1-carboxamide]					0.006 µM	0.045 µM	0.017 µM	0.027 µM	
CCC(C)c1cnc2nn(-c3cc(NC(=O)N4CC(F)(F)C4)ccc3F)cc2c1 (centres unmarked) [Compound 36, N-{3-[5-(butan-2-yl)-2H-pyrazolo[3,4-b]pyridin-2-yl]-4-fluorophenyl}-3,3-difluoroazetidine-1-carboxamide]		0.25 µM		0.21 µM					
O=C(Nc1ccc(F)c(-n2cc3cc(C4CCCCC4)cnc3n2)c1)N1CC[C@@H](F)C1 [Compound 44, (3R)-N-(3-{5-cyclohexyl-2H-pyrazolo[3,4-b]pyridin-2-yl}-4-fluorophenyl)-3-fluoropyrrolidine-1-carboxamide]	0.022 µM	0.032 µM		0.029 µM					
CC(C)(C)c1cnc2nn(-c3cc(NC(=O)N4CC[C@@H](F)C4)ccc3F)cc2c1 [Compound 47, (3R)-N-(3-{5-tert-butyl-2H-pyrazolo[3,4-b]pyridin-2-yl}-4-fluorophenyl)-3-fluoropyrrolidine-1-carboxamide]	0.0028 µM	0.027 µM		0.023 µM					
O=C(Nc1ccc(F)c(-n2cc3cc(C4CC4)cnc3n2)c1)c1ccco1 [Compound 55, N-(3-{5-cyclopropyl-2H-pyrazolo[3,4-b]pyridin-2-yl}-4-fluorophenyl)furan-2-carboxamide]	0.0063 µM	0.035 µM		0.057 µM					
O=C(Nc1ccc(F)c(-n2cc3cc(C4CCCC4)cnc3n2)c1)c1ccco1 [Compound 56, N-(3-{5-cyclopentyl-2H-pyrazolo[3,4-b]pyridin-2-yl}-4-fluorophenyl)furan-2-carboxamide]		0.55 µM		0.24 µM					
CC(C)CCc1cnc2nn(-c3cc(NC(=O)c4ccco4)ccc3F)cc2c1 [Compound 63, N-{4-fluoro-3-[5-(3-methylbutyl)-2H-pyrazolo[3,4-b]pyridin-2-yl]phenyl}furan-2-carboxamide]	0.014 µM	0.09 µM		0.089 µM					
CN(C)C(=O)Nc1ccc(F)c(-n2cc3cc(N(C)C)cnc3n2)c1 [Compound 143, 1-{3-[5-(dimethylamino)-2H-pyrazolo[3,4-b]pyridin-2-yl]-4-fluorophenyl}-3,3-dimethylurea]		0.11 µM	< 0.023 µM	0.15 µM					
O=C(Nc1ccc(F)c(-n2cc3cc(CC(F)(F)F)cnc3n2)c1)c1ccco1 [Compound 176, N-{4-fluoro-3-[5-(2,2,2-trifluoroethyl)-2H-pyrazolo[3,4-b]pyridin-2-yl]phenyl}furan-2-carboxamide]	0.0095 µM	0.069 µM		0.071 µM					
[2H]C([2H])([2H])N(c1cnc2nn(-c3cc(NC(=O)N4CC(F)C4)ccc3F)cc2c1)C([2H])([2H])[2H] [Compound 314, N-(3-[5-[bis(^2H3)methylamino]-2H-pyrazolo[3,4-b]pyridin-2-yl]-4-fluorophenyl)-3-fluoroazetidine-1-carboxamide]	0.005 µM	0.006 µM		0.242 µM					
O=C(Nc1ccc(F)c(-n2cc3cc(N4CC5(CC5)C4)cnc3n2)c1)N1CCCC1 [Compound 337, N-[3-(5-{5-azaspiro[2.3]hexan-5-yl}-2H-pyrazolo[3,4-b]pyridin-2-yl)-4-fluorophenyl]pyrrolidine-1-carboxamide]	0.004 µM	0.013 µM	0.007 µM						
Cc1nc(C)c(C(=O)Nc2ccc(F)c(-n3cc4cc(-c5ccccc5)cnc4n3)c2)o1 [Compound 352, N-(4-fluoro-3-(5-phenyl-2H-pyrazolo[3,4-b]pyridin-2-yl)phenyl)-2,4-dimethyloxazole-5-carboxamide]		0.031 µM	0.039 µM	0.017 µM					
O=C(Nc1ccc(F)c(-n2cc3cc(-c4ccccc4)cnc3n2)c1)N1CC(F)(F)C1 [Compound 353, 3,3-difluoro-N-(4-fluoro-3-(5-phenyl-2H-pyrazolo[3,4-b]pyridin-2-yl)phenyl)azetidine-1-carboxamide]			0.013 µM	0.005 µM					0.004 µM
